Measurements reported in patent publication US20140357512A1, “HISTONE DEACETYLASE (HDAC) BIOMARKERS IN MULTIPLE MYELOMA” (priority 2013, published 2014).

System: human myeloma cell line MM.1S
Assay: SILAC acetylated-lysine peptide profiling, HDAC inhibitor vs DMSO (light/heavy ratio)
Assay type: cell-based
From the text: An embodiment of the invention comprises utilizing the SILAC method in order to quantitate changes in protein expression between two or more populations of cells. The SILAC method is a technique based on mass spectrometry that detects differences in protein abundance among samples using non-radioactive isotopic labeling. The SILAC method is known in the art, and described in detail in Ong et al., “Stable Isotope Labeling by Amino Acids in Cell Culture, SILAC, as a Simple and Accurate Approach to Expression Proteomics”, Molecular & Cellular Proteomics, vol. 1, pp. 376-386 (2002), which is incorporated herein by reference in its entirety.
Briefly, the SILAC method involves growing two populations of cells in cell culture. The first population of cells is grown in growth media containing normal amino acids (“normal media”). The second population of cells is grown in media lacking a standard essential amino acid (such as lysine), but is then supplemented with a non-radioactive, isotopically labeled form of that essential amino acid (such as lysine labeled with ^13C atoms, rather than normal ^12C atoms), which is called “heavy media”. When the two populations of cells are each growing in the medium, they incorporate the amino acids into all of their proteins. The growth of cells maintained in the heavy media is no different from that in normal media. All peptides containing the heavy amino acids are heavier than their normal counterparts. The cells from each of the two populations of cells are lysed. The lysates from each of the two cell populations are then combined. The combined cell lysates are then analyzed by mass spectrometry. Pairs of chemically identical peptides of different stable isotope composition can be differentiated in a mass spectrometer due to their difference in mass. The ratio of peak intensities in the mass spectrum for such peptide pairs reflects the abundance ratio for the two proteins.
This example describes SILAC studies that were performed to compare the effects of three different HDAC inhibitors (Compound A, Compound B, and tubastatin A) to a control on a human multiple myeloma cell line. The HDAC inhibitors were also compared amongst themselves to determine differences in their effects.
A human myeloma cell line MM.1S was grown using either ^12C (light) or ^13C (heavy) lysine containing culture medium. The “heavy” cells were treated with DMSO as the control, and the “light” cells were treated with a single HDAC inhibitor at 37° C. for 6 hours. The heavy and light cells were lysed, and the lysates were mixed in 1:1 ratio and digested with the protease trypsin. The acetylated lysine containing peptides (due to the action of the HDAC inhibitor) in the digested peptide pool were captured by a non-specific anti-acetylated lysine antibody cocktail (the antibodies identify both light and heavy acetylated peptides), and subjected to mass spectrometry analysis in order to identify thousands of individual peptides.
Thousands of peptides were identified in pairs (^12C and ^13C) due to their known mass differences. The amino acid sequence and quantitative ratio (Light/Heavy) of a given peptide in two differentially treated cell lysates were then determined and annotated with their possible protein (gene) sources.
As stated above, three HDAC inhibitors (Compound A, Compound B, and Tubastatin A) were used. Thus, the SILAC method was performed three times, with a different HDAC inhibitor compared to a control each time. Accordingly, there are three pairs of quantitative data in the table below, i.e., Compound A:DMSO, Compound B:DMSO, and Tubastatin A:DMSO. A cut-off of 1.30 fold of change (increase or decrease) was then used to determine “changed” or “+” in the table, and any peptides with a fold of change less than 1.3 fold were determined to be “unchanged” or “0” in the table. Those peptides that were not identified were marked as “NA” in the table. […]

With `O=C(NO)c1cnc(NC2(c3cccc(F)c3)CCCCC2)nc1` [Compound B, 2-((1-(3-fluorophenyl)cyclohexyl)amino)-N-hydroxypyrimidine-5-carboxamide] the “L/H ratio of acetylated peptide” value (VETFSGVYK(ac)K (SEQ ID NO: 445), 40S ribosomal protein S7 [178], RPS7) was −0.78 log 2, the “L/H ratio of acetylated peptide” value (VEWAK(ac)FQER (SEQ ID NO: 447), Splicing factor 3A subunit 1 [251], SF3A1) was −0.55 log 2 and the “light to heavy ratio (L/H ratio) of acetylated peptide, log 2 scale” value (shortened to “light to heavy ratio (L/H ratio) … log 2 scale”) (VGIVGK(ac)YGTR (SEQ ID NO: 250), 60S ribosomal protein L37a [13], RPL37A) was 0.00. The “L/H ratio of acetylated peptide” value (VIIVVK(ac)DGPGFYTTR (SEQ ID NO: 401), Trifunctional enzyme subunit alpha mitochondrial [540], HADHA) was −0.70 log 2, the “L/H ratio of acetylated peptide TNEK(ac)VELQELNDR (SEQ ID NO: 122)” value (VIM [104], log 2 scale, drug vs DMSO) was 0.00 and the “L/H ratio of acetylated peptide FANYIDK(ac)VR (SEQ ID NO: 118)” value (VIM [120], log 2 scale, drug vs DMSO) was 0.00. For the same compound, the “L/H ratio of acetylated peptide […](ac)GQGK (SEQ ID NO: 119)” value (VIM [139], log 2 scale, drug vs DMSO) was 0.00, the “L/H ratio of acetylated peptide SK(ac)[…] (SEQ ID NO: 121)” value (VIM [294], log 2 scale, drug vs DMSO) was 0.00 and the “L/H ratio of acetylated peptide LQDEIQNMK(ac)EEMAR (SEQ ID NO: 120)” value (VIM [373], log 2 scale, drug vs DMSO) was 0.00. The “light to heavy ratio (L/H ratio) … log 2 scale” value (VVVGK(ac)[…] (SEQ ID NO: 193), Protein disulfide-isomerase A4 [533], PDIA4) was 0.00, the “L/H ratio of acetylated peptide” value (VYISK(ac)CYR (SEQ ID NO: 394), Isoform 1 of Regulator of micro-tubule dynamics protein 3 [426], FAM82A2) was −0.85 log 2 and the “light to heavy ratio (L/H ratio) of acetylated peptide TLLIK(ac)TVETR (SEQ ID NO: 269)” value (Vimentin [445], VIM, drug:DMSO) was 0.00 log 2. For the same compound, the “L/H ratio of acetylated peptide” value (WTPEVK(ac)[…] (SEQ ID NO: 442), Rho-related GTP-binding protein RhoC [104], RHOC) was −0.39 log 2, the “light to heavy ratio (L/H ratio) of acetylated peptide IAAYK(ac)SILQER (SEQ ID NO: 531)” value (X-ray repair cross-complementing protein 5 [265], gene XRCC5, inhibitor:DMSO) was 0.00 log 2 and the “light to heavy ratio (L/H ratio) of acetylated peptide EEAIK(ac)FSEEQR (SEQ ID NO: 509)” value (X-ray repair cross-complementing protein 5 [648], gene XRCC5, inhibitor:DMSO) was 0.00 log 2. The “light to heavy ratio (L/H ratio) of acetylated peptide […](ac)HFQD (SEQ ID NO: 355)” value (X-ray repair cross-complementing protein 6 [605], XRCC6, drug:DMSO) was −0.74 log 2, the “L/H ratio of acetylated peptide ALQEK(ac)VEIK (SEQ ID NO: 123)” value (XRCC5 [665], log 2 scale, drug vs DMSO) was 0.00 and the “L/H ratio of acetylated peptide” value (YHVSEK(ac)PYGIVEK (SEQ ID NO: 424), NADH dehydrogenase [ubiquinone] 1 beta subcomplex subunit 6 [93], NDUFB6) was −1.00 log 2. The “L/H ratio of acetylated peptide” value (YK(ac)[…] (SEQ ID NO: 417), Microsomal glutathione S-transferase 3 [37], MGST3) was −0.59 log 2, the “light to heavy ratio (L/H ratio) … log 2 scale” value (YLENGK(ac)ETLQR (SEQ ID NO: 163), Putative HLA class I histocompatibility antigen alpha chain H [200], HLA-H) was 0.00 and the “light to heavy ratio (L/H ratio) … log 2 scale” value (YNCDK(ac)MICR (SEQ ID NO: 254), Ubiquitin-605 ribosomal protein L40 [93], UBA52) was 0.00. For the same compound, the “L/H ratio of acetylated peptide” value (YPPPYK(ac)HFWTAES (SEQ ID NO: 461), Isoform 2 of Ubiquitin-associated protein 2-like [976], UBAP2L) was −0.50 log 2, the “L/H ratio of acetylated peptide” value (YTEQITNEK(ac)LAMVK (SEQ ID NO: 423), NADH dehydrogenase [ubiquinone] 1 alpha subcomplex subunit 5 [55], NDUFA5) was −0.40 log 2 and the “light to heavy ratio (L/H ratio) … log 2 scale” value ([…](ac)AAVR (SEQ ID NO: 220), Tricarboxylate transport protein mitochondrial [97], SLC25A1) was 0.00. For the same compound, the “light to heavy ratio (L/H ratio) … log 2 scale” value ([…](ac)DETEFR (SEQ ID NO: 137), UPF0568 protein C14orf166 [20], C14orf166) was 0.00, the “L/H ratio of acetylated peptide” value ([…](ac)DGEIYCK (SEQ ID NO: 383), Cysteine and glycine-rich protein 1 [161], CSRP1) was −0.67 log 2 and the “L/H ratio of acetylated peptide” value ([…](ac)EKLNER (SEQ ID NO: 406), 60 kDa heat shock protein mitochondrial [387], HSPD1) was 0.40 log 2. For the same compound, the “L/H ratio of acetylated peptide” value ([…](ac)FDENAK (SEQ ID NO: 429), Phosphoglycerate kinase 1 [291], PGK1) was 0.60 log 2, the “L/H ratio of acetylated peptide” value ([…](ac)FIAR (SEQ ID NO: 441), Protein RCC2 [293], RCC2) was 0.75 log 2 and the “light to heavy ratio (L/H ratio) … log 2 scale” value ([…](ac)FSDDHYR (SEQ ID NO: 190), NAD(P) transhydrogenase mitochondrial [100], NNT) was 0.00. For the same compound, the “L/H ratio of acetylated peptide” value ([…](ac)FVER (SEQ ID NO: 460), cDNA FLJ40024 fis clone STOMA2007745 highly similar to UBIQUITIN-[…] E1 [119], UBA1) was 0.44 log 2 and the “L/H ratio of acetylated peptide” value ([…](ac)GDSK(ac)NAK (SEQ ID NO: 392), Histone acetyltransferase p300 [1542:1546], EP300) was 0.53 log 2.
